{"source": "patent US20170342503A1", "about": "“XRN2 AS A DETERMINANT OF SENSITIVITY TO DNA DAMAGE” (The Board of Regents of the University of Texas System, priority 2016, published 2017)", "key": {"[1]": {"system": "shXRN2 human fibroblast cells", "experiment": "Immunofluorescence of basal 53BP1 foci and R loops in shXRN2 versus shScr cells", "type": "cell-based", "description": "FIGS. 24A-C. DSBs formed in XRN2 deficient cells are dependent on active transcription and R-loop formation. (FIGS. 24A-B) Levels of 53BP1 were monitored in shXRN2 and compared to shScr human fibroblast cells after exposure to mock-, a-amanitin-, or GFP- or RNaseH-transfection treatments by IF. (FIG. 24C) Levels of R loops or 53BP1 were monitored in mock- or a-amanitin-treated shXRN2 cells by IF.\nTo visualize 53BP1, XRN2, and γ-H2AX, cells were plated, grown to ˜70% confluency on glass coverslips and either mock- or IR-treated. Cells were then washed once with PBS, permeabilized and fixed in methanol/acetone (70/30, v/v). To visualize ATM pS 1981 and Mre11 cells were fixed in 3% paraformaldehyde/2% sucrose PBS solution for 10 min at room temperature (RT). Fixation was followed by permeabilization on ice with a 0.5% Triton X-100 buffer (0.5% Triton X-100, 20 mM HEPES, pH 7.4, 50 mM NaCl, 3 mM MgCl, and 300 mM sucrose). […] Visualization was performed using a 100× oil objective lens with fluorescence on a Nikon microscope. For each experiment 100 cells were counted.\nTo determine how transcription and R-loop formation contributed to the DNA damage observed in shXRN2 cells, the inventors treated shScr and shXRN2 cells with a-amanitin or transfected each cell line with GFP control or GFP-RNaseH expression plasmids to remove R-loops and measured the number of 53BP1 foci."}, "shXRN2 cells": {"system": "shXRN2 cells", "experiment": "Regression of 53BP1 foci/nucleus after IR exposure (DNA repair kinetics)", "type": "cell-based", "conditions": "IR (1 Gy); treatment prior to IR; FIGS. 15B-C", "source_text": "FIGS. 15A-C. R loop formation and transcription contribute to delayed DSB repair kinetics in XRN2-deficient cells. (FIG. 15A) Levels of R loops were monitored in mock- or IR (1 Gy)-exposed shXRN2 compared to shScr MDA-MB-231 breast cancer cells by IF. (FIGS. 15B-C) Regression of 53BP1 foci/nucleus was monitored in mock- or IR (1 Gy)-treated shXRN2 compared to shScr cells that were exposed to a-amanitin or GFP- or GFP-RNaseH transfection at the indicated times by IF. (*p<0.05).\nTo visualize 53BP1, XRN2, and γ-H2AX, cells were plated, grown to ˜70% confluency on glass coverslips and either mock- or IR-treated. […] Visualization was performed using a 100× oil objective lens with fluorescence on a Nikon microscope. For each experiment 100 cells were counted.\nSince the loss of XRN2 sensitized cells to IR treatment (FIG. 12A), the inventors examined the effects of IR on R-loop formation in shXRN2 cells. Because R-loops can directly lead to DSBs, they examined whether active transcription or R-loop formation directly affected DNA repair (regression of 53BP1 foci) after IR treatment. shScr or shXRN2 cells were treated or not with a-amanitin or transfected with GFP- or GFP-RNaseH expression plasmids prior to IR exposure and 53BP1 foci/nuclei regression kinetics were assessed at various times after IR exposure."}, "fibroblast cells": {"system": "fibroblast cells", "experiment": "Immunofluorescence of XRN2 and R loop (S9.6) foci after UV treatment", "type": "cell-based, human", "conditions": "UV (20 J/m^2) + a-amanitin; FIG. 17D", "source_text": "FIGS. 10A-D. XRN2 is a DNA damage response (DDR) factor. (FIG. 10A) To interrogate potential in vivo XRN2-interacting partners, exponentially growing HeLa cells were collected and lysed for FPLC analyses. Individual fractions were separated by SDS-PAGE and western blot techniques used to probe for indicated proteins. (FIG. 10B) Interactions between XRN2 and the DNA damage regulators Ku80, 53BP1, and BRCA1 were interrogated by immunoprecipitation (IP). (FIG. 10C) Sub-cellular XRN2 localization was quantitated in shScr and […] cells in mock-, IR (1 Gy), and UV (20 J/m^2) fibroblast cells. (FIG. 10D) Sub-cellular XRN2 localization and S9.6 foci was visualized in mock-, UV (20 J/m^2)-, or UV (20 J/m^2)+a amanitin (a-aman)-treated shScr and shXRN2 fibroblast cells by IF. (*p<0.05).\nFIGS. 17A-D. XRN2 undergoes transcription-dependent nuclear re-distribution in response to IR and UV. (FIGS. 17A-D) Sub-cellular localization of XRN2 was monitored in fibroblast cells either after (FIG. 17A) mock, (FIG. 17B) IR (1Gy), (FIG. 17C) UV (20 J/m^2), or (FIG. 17D) UV (20 J/m^2)+a-amanitin treated cells by IF.\nTo visualize 53BP1, XRN2, and γ-H2AX, cells were plated, grown to ˜70% confluency on glass coverslips and either mock- or IR-treated. […] Visualization was performed using a 100× oil objective lens with fluorescence on a Nikon microscope. For each experiment 100 cells were counted. […]"}, "[2]": {"system": "advanced pancreatic cancer", "conditions": "people with advanced pancreatic cancer; cited from earlier work"}, "[3]": {"system": "XRN2 deficient cells, fibroblast or MDA-MB-231 cells", "experiment": "Colony forming ability assay in shScr versus shXRN2 cells after genomic insult", "type": "cell-based, human", "conditions": "FIGS. 12E-F", "quoted_text": "(FIGS. 12A-D) shScr versus shXRN2 cells (as indicated in the graph) or cells exposed to si-control (siSCR) versus XRN2 specific siRNA (siXRN2) were either mock-treated or exposed to: (FIGS. 12A-B) ionizing radiation (IR); (FIGS. 12C-D) ultraviolet light (UV). (FIGS. 12E-F) shScr and shXRN2, were either mock-treated or exposed to: (FIG. 12E) H2O2 or (FIG. 12F) Aphidicolin (APH). Cells were then monitored for survival using colony forming ability assays. Colonies of >50 normal-appearing cells were quantified for mock-versus agent-exposed cells. (**p<0.01).\nshScr and shXRN2 cells were plated onto 60 mm tissue culture plates and allowed to grow for two days. Cells were then exposed to IR and UV (at various doses as indicated), allowed to grow for 7 days, washed with PBS and stained with crystal violet solution. Colonies with >50 normal appearing cells were counted and percent survival calculated and graphed with dose."}, "[4]": {"system": "cells with transient siRNA-mediated loss of XRN2", "experiment": "Colony forming assay, PARP inhibition with transient siRNA-mediated loss of XRN2", "type": "cell-based", "conditions": "FIG. 8C, p<0.05", "description": "FIGS. 8A-C. XRN2 depletion sensitizes cells to genetic knockdown and chemical inhibition of PARP1. […] (FIG. 8B) Loss of XRN2 and PARP1 by transient siRNA knockdown together inhibits cellular growth and survival; black column—shSCR; white column—shXRN2.\nshScr and shXRN2 cells were plated onto 60 mm tissue culture plates and allowed to grow for two days. […] Colonies with >50 normal appearing cells were counted and percent survival calculated and graphed with dose."}}, "data": [{"molecule": "a-amanitin", "values": [{"measurement": "R-loop levels in shXRN2 cells", "setting": "[1]; after a-amanitin treatment, FIG. 24C", "value": "decrease in R-loop levels"}, {"measurement": "53BP1 foci in shXRN2 cells", "setting": "[1]; inhibition of transcription, to levels comparable to shScr cells, FIGS. 24A-B", "value": "decreased 53BP1 foci"}, {"measurement": "DNA repair kinetics (regression of 53BP1 foci) after IR exposure in shXRN2 cells", "setting": "shXRN2 cells", "value": "completely restored DNA repair kinetics"}, {"measurement": "XRN2 and R loop foci formation after UV treatment", "setting": "fibroblast cells", "value": "failed to form"}]}, {"molecule": "Nc1ccn([C@@H]2O[C@H](CO)[C@@H](O)C2(F)F)c(=O)n1", "note": "[Gemcitabine]", "values": [{"measurement": "improvement in median survival duration", "setting": "[2]", "value": 5, "unit": "week"}]}, {"molecule": "C[C@@]1(CO)[C@H](O)CC[C@@]2(C)[C@H]1CC[C@H]1C[C@@H]3C[C@@]12CC[C@]3(O)CO", "note": "[aphidicolin]", "values": [{"measurement": "sensitivity of XRN2 deficient cells (colony forming ability after exposure)", "setting": "[3]", "value": "hypersensitive"}]}, {"molecule": "O=C1NCCc2c(OCCCCN3CCCCC3)cccc21", "note": "[DPQ]", "values": [{"measurement": "effect of PARP activity inhibition on survival in colony forming assays with loss of XRN2", "setting": "[4]", "value": "synthetic lethal"}]}, {"molecule": "OO", "note": "[hydrogen peroxide]", "values": [{"measurement": "sensitivity of XRN2 deficient cells (colony forming ability after exposure)", "setting": "[3]", "value": "hypersensitive"}]}]}
